{"source": "patent US12649750B2", "about": "“Macrocyclic compounds, compositions, and methods of using thereof” (Sionna Therapeutics Inc., priority 2022, dated 2026)"}
{"target": "T1, NBD1 (Homo sapiens, UniProt P13569)", "T1 construct": "Purified recombinant NBD1 was produced using previously described methods; made in house", "T1 sequence (P13569 423-646 limits assumed)": "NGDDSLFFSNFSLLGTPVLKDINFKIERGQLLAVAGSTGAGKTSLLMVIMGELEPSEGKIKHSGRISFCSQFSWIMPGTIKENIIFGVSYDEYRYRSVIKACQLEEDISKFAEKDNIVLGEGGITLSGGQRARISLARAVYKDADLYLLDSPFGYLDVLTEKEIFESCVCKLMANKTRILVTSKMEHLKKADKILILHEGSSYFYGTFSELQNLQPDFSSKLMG", "test": "Aggregation analysis using differential static light scattering (DSLS), thermal stability of NBD1 (ΔTagg)", "assay_type": "binding", "settings": "ΔTagg versus DMSO control, NBD1 0.2 mg/ml", "summary_of_the_method": "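Purified recombinant NBD1 at 0.2 mg/ml in Tris buffer pH7.6 with 2 mM ATP, 5 mM MgCl2, 2 mM DTT and 1% glycerol was mixed with DMSO-dissolved compounds under mineral oil. Plates were heated at 1° C. per minute to 70° C., light scattering imaged every 0.5° C.; Tagg from curve inflection, minus DMSO-control mean.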"}
{"smiles": "C[C@H](Cc1cccc([C@@]2(C)CCCC(C)(C)CS(=O)(=O)CCc3c(c(F)c(F)c4[nH]cc(C#N)c34)Oc3ccc(F)c(c3)-c3nc2nn3C)c1)C(=O)O", "note": "[Compound 322, (2R)-3-[3-[(6R)-17-Cyano-21,22,28-trifluoro-3,6,10,10-tetramethyl-12,12-dioxo-24-oxa-12λ6-thia-3,4,19,30-tetrazapentacyclo[23.3.1.12,5.015,23.016,20]triaconta-1(29),2(30),4,15,17,20,22,25,27-nonaen-6-yl]phenyl]-2-methyl-propanoic Acid]", "DSLS 3D (100 μM ΔT)": "B (a value above 5 °C and less than or equal to 10 °C is marked “B”)"}
{"smiles": "C[C@@H](Cc1cccc([C@@]2(C)CCCC(C)(C)CS(=O)(=O)CCc3c(c(F)cc4[nH]ccc34)S(=O)(=O)c3ccnc(c3)-c3nc2nn3C)c1)C(=O)O", "note": "[Compound 347, (2S)-3-[3-[(6R)-22-Fluoro-3,6,10,10-tetramethyl-12,12,24,24-tetraoxo-12λ6,24λ6-dithia-3,4,19,28,30-pentazapentacyclo[23.3.1.12,5.015,23.016,20]triaconta-1(29),2(30),4,15,17,20,22,25,27-nonaen-6-yl]phenyl]-2-methyl-propanoic Acid]", "DSLS 3D (100 μM ΔT)": "B (a value above 5 °C and less than or equal to 10 °C is marked “B”)"}
{"smiles": "Cn1nc2nc1-c1cc(ccc1F)S(=O)(=O)c1c(F)cc3[nH]cc(Cl)c3c1CCS(=O)(=O)CC(C)(C)CCC[C@]2(C)c1cccc(CC(C)(C)C(=O)O)c1", "note": "[Compound 348B, 3-[3-[(6R)-17-Chloro-22,28-difluoro-3,6,10,10-tetramethyl-12,12,24,24-tetraoxo-12λ6,24λ6-dithia-3,4,19,30-tetrazapentacyclo[23.3.1.12,5.015,23.016,20]triaconta-1(29),2(30),4,15,17,20,22,25,27-nonaen-6-yl]phenyl]-2,2-dimethyl-propanoic Acid]", "DSLS 3D (100 μM ΔT)": "A (an ΔTagg value less than or equal to 5 °C is marked “A”)"}
{"smiles": "CC(=O)NC1CS(=O)(=O)CC(C)(C)CCC[C@](C)(c2cccc(C[C@@H](C)C(=O)O)c2)c2nc(n(C)n2)-c2cc(ccc2F)Oc2c(F)c(F)c3[nH]ccc3c21", "note": "(single isomer, unassigned) [Compound 369A]", "DSLS 3D (100 μM ΔT)": "C (a value greater than 10 °C and less than or equal to 25 °C is marked “C”)"}
{"smiles": "Cn1nc2nc1-c1cc(ccn1)Cc1c(F)c(F)c3[nH]ccc3c1CCS(=O)(=O)CC(C)(C)CCC[C@]2(C)c1cccc(CC(C)(C)C(=O)O)c1", "note": "[Compound 307, 3-[3-[(6R)-21,22-Difluoro-3,6,10,10-tetramethyl-12,12-dioxo-12λ6-thia-3,4,19,28,30-pentazapentacyclo[23.3.1.12,5.015,23.016,20]triaconta-1(29),2(30),4,15,17,20,22,25,27-nonaen-6-yl]phenyl]-2,2-dimethyl-propanoic Acid]", "DSLS 3D (100 μM ΔT)": "A (an ΔTagg value less than or equal to 5 °C is marked “A”)"}
{"smiles": "CC1c2ccnc(c2)-c2nc(nn2C)[C@@](C)(c2cccc(C[C@@H](C)C(=O)O)c2)CCCC(C)(C)CS(=O)(=O)CCc2c1c(F)c(F)c1[nH]ccc21", "note": "(single isomer, unassigned) [Compound 317B]", "DSLS 3D (100 μM ΔT)": "A (an ΔTagg value less than or equal to 5 °C is marked “A”)"}
{"smiles": "C[C@H](Cc1cccc([C@@]2(C)CCCC(C)(C)CS(=O)(=O)CCc3c(c(F)c(F)c4[nH]ccc34)Cc3ccnc(c3)-c3nc2nn3C)c1)C(=O)O", "note": "[Compound 305, (2R)-3-[3-[(6R)-21,22-Difluoro-3,6,10,10-tetramethyl-12,12-dioxo-12λ6-thia-3,4,19,28,30-pentazapentacyclo[23.3.1.12,5.015,23.016,20]triaconta-1(29),2(30),4,15,17,20,22,25,27-nonaen-6-yl]phenyl]-2-methyl-propanoic acid]", "DSLS 3D (100 μM ΔT)": "B (a value above 5 °C and less than or equal to 10 °C is marked “B”)"}
{"smiles": "C[C@@H](Cc1cccc([C@@]2(C)CCCC(C)(C)CS(=O)(=O)CCc3c(c(F)cc4[nH]ccc34)S(=O)(=O)c3ccc(F)c(c3)-c3nc2nn3C)c1)C(=O)O", "note": "[Compound 329, (2S)-3-[3-[(6R)-22,28-Difluoro-3,6,10,10-tetramethyl-12,12,24,24-tetraoxo-12λ6,24λ6-dithia-3,4,19,30-tetrazapentacyclo[23.3.1.12,5.015,23.016,20]triaconta-1(29),2(30),4,15,17,20,22,25,27-nonaen-6-yl]phenyl]-2-methyl-propanoic Acid]", "DSLS 3D (100 μM ΔT)": "B (a value above 5 °C and less than or equal to 10 °C is marked “B”)"}
{"smiles": "Cn1nc2nc1-c1cc(ccn1)Cc1c(F)cc3[nH]cc(CC(=O)O)c3c1CCS(=O)(=O)CC(C)(C)CCC[C@]2(C)c1ccccc1", "note": "[Compound 364, 2-[(6R)-22-Fluoro-3,6,10,10-tetramethyl-12,12-dioxo-6-phenyl-12λ6-thia-3,4,19,28,30-pentazapentacyclo[23.3.1.12,5.015,23.016,20]triaconta-1(29),2(30),4,15,17,20,22,25,27-nonaen-17-yl]acetic Acid]", "DSLS 3D (100 μM ΔT)": "A (an ΔTagg value less than or equal to 5 °C is marked “A”)"}
{"smiles": "CC1c2ccnc(c2)-c2nc(nn2C)[C@@](C)(c2cccc(C[C@H](C)C(=O)O)c2)CCCC(C)(C)CS(=O)(=O)CCc2c1c(F)c(F)c1[nH]ccc21", "note": "(single isomer, unassigned) [Compound 316A]", "DSLS 3D (100 μM ΔT)": "B (a value above 5 °C and less than or equal to 10 °C is marked “B”)"}
{"smiles": "C[C@H](Cc1cccc(C2NCC(F)(F)CCS(=O)(=O)CCc3c(c(F)c(F)c4[nH]ccc34)Oc3ccc(F)c(c3)-c3nc2nn3C)c1)C(=O)O", "note": "(mixture of isomers) [Compound 380, (2R)-2-Methyl-3-[3-(9,9,21,22,28-pentafluoro-3-methyl-12,12-dioxo-24-oxa-12λ6-thia-3,4,7,19,30-pentazapentacyclo[23.3.1.12,5.015,23.016,20]triaconta-1(29),2(30),4,15,17,20,22,25,27-nonaen-6-yl)phenyl]propanoic Acid]", "DSLS 3D (100 μM ΔT)": "A (an ΔTagg value less than or equal to 5 °C is marked “A”)"}
{"smiles": "C[C@@H](Cc1cncc(C2(C)CCCC(C)(C)CS(=O)(=O)CCc3c(c(F)c(F)c4[nH]ccc34)Oc3ccnc(c3)-c3nc2nn3C)n1)C(=O)O", "note": "(single isomer, unassigned) [Compound 300B]", "DSLS 3D (100 μM ΔT)": "A (an ΔTagg value less than or equal to 5 °C is marked “A”)"}
{"smiles": "C[C@@H](Cc1cccc([C@@]2(C)CCCC(C)(C)CS(=O)(=O)CCc3c(c(F)cc4[nH]ccc34)S(=O)(=O)c3cccc(c3)-c3coc2n3)c1)C(=O)O", "note": "[Compound 331, (2S)-3-[3-[(6R)-22-Fluoro-6,10,10-trimethyl-12,12,24,24-tetraoxo-4-oxa-12λ6,24λ6-dithia-19,30-diazapentacyclo[23.3.1.12,5.015,23.016,20]triaconta-1(29),2,5(30),15,17,20,22,25,27-nonaen-6-yl]phenyl]-2-methyl-propanoic acid]", "DSLS 3D (100 μM ΔT)": "A (an ΔTagg value less than or equal to 5 °C is marked “A”)"}
{"smiles": "COC(=O)[C@@H](C)Cc1cccc([C@@]2(C)CCCC(C)(C)CS(=O)(=O)CCc3c[nH]c4cc(F)c(cc34)Sc3ccc(F)c(c3)-c3nc2nn3C)c1", "note": "[Compound 354, Methyl (2S)-3-[3-[(12R)-6,26-difluoro-9,12,16,16-tetramethyl-18,18-dioxo-2,18λ6-dithia-9,10,23,29-tetrazapentacyclo[19.5.2.13,7.18,11.024,28]triaconta-1(26),3,5,7(30),8(29),10,21,24,27-nonaen-12-yl]phenyl]-2-methyl-propanoate]", "DSLS 3D (100 μM ΔT)": "A (an ΔTagg value less than or equal to 5 °C is marked “A”)"}
